This is an account of results in ChEMBL document CHEMBL1136440, “Design and synthesis of novel RXR-selective modulators with improved pharmacological profile” (Bioorg Med Chem Lett, 2003).

pEC50, pIC50, pKi: −log10 of the molar value. Values joined by “and” are separate entries in the source; they are usually repeats but may differ in a detail not shown here. Identical values can stand only once. Some results are limits rather than exact numbers.

The target in data set [1] is T1, Retinoic acid receptor RXR-beta (Homo sapiens, UniProt P28702).
T1 sequence (P28702 whole entry): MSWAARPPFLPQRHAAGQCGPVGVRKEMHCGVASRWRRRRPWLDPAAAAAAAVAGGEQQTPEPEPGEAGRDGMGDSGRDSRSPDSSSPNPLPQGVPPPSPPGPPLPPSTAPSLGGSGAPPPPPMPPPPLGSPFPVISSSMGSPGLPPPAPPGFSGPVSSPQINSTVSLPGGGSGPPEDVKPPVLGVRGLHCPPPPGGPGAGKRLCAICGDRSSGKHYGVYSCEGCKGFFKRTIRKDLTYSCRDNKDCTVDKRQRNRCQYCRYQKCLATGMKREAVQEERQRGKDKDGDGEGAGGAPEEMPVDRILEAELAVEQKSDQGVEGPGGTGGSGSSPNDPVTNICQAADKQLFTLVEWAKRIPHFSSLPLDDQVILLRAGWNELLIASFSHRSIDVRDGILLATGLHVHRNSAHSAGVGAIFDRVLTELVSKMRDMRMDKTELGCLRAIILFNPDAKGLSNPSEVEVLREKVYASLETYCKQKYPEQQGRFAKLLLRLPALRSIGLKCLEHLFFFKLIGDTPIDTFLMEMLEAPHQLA
Briefly: Displacement of [3H]9-cis-RA from RXR beta receptor in CV-1 cells. Format: cell-based, Cercopithecidae.

The target of data set [2] is T2, Peroxisome proliferator-activated receptor gamma (Homo sapiens, UniProt P37231).
T2 sequence (P37231 whole entry): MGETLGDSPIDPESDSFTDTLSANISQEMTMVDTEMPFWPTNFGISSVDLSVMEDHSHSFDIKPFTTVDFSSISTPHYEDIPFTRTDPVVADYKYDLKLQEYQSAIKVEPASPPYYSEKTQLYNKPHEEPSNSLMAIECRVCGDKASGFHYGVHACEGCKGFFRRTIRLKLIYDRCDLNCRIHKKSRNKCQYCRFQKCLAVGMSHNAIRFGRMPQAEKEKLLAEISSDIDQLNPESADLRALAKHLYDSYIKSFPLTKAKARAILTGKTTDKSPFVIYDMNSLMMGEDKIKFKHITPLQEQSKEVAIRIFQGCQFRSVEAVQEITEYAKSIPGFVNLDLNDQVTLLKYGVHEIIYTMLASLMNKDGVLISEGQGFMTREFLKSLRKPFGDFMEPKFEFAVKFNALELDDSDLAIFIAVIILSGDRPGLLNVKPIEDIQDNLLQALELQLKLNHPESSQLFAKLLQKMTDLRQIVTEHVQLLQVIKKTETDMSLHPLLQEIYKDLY
Description: In vitro agonistic activity against PPAR gamma along with 100 nM BRL-49653

Data set [3] has as its target T3, Retinoic acid receptor alpha (Homo sapiens, UniProt P10276).
T3 sequence (P10276 whole entry): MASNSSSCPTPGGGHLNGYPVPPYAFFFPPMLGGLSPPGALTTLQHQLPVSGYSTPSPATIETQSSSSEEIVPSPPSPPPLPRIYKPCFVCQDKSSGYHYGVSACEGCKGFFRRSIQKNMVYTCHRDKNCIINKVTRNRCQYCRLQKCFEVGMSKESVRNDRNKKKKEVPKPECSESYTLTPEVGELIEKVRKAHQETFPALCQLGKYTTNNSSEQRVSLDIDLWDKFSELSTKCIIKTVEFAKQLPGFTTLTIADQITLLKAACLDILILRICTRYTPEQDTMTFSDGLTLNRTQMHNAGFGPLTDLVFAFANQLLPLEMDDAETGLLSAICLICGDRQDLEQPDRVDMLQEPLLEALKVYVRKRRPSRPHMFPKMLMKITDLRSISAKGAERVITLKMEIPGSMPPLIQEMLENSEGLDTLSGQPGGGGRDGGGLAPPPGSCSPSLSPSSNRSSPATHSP
Briefly: Binding affinity against RAR alpha receptor using [3H]ATRA as radioligand in CV-1 cells. Format: cell-based, Cercopithecidae.

Data set [4] concerns the target T4, Retinoic acid receptor RXR-alpha (Homo sapiens, UniProt P19793).
T4 sequence (P19793 whole entry): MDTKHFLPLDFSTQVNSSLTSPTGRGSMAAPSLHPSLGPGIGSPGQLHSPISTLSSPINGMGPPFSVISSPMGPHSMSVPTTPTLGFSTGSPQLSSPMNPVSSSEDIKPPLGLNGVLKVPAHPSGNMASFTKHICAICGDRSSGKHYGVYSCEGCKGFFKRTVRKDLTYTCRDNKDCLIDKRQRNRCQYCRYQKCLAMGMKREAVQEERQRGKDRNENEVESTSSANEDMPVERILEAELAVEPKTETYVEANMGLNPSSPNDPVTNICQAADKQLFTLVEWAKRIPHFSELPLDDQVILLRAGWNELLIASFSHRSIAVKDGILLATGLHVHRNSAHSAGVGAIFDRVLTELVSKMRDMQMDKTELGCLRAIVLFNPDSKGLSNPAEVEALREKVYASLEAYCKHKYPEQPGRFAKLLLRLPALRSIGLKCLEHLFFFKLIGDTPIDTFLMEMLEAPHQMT
Briefly: biochemical.
Description: Binding affinity against RXR alpha receptor using [3H]9-cis-RA as radioligand in CV-1 cells

Data set [5] addresses T5, Retinoic acid receptor gamma (Homo sapiens, UniProt P13631).
T5 sequence (P13631 whole entry): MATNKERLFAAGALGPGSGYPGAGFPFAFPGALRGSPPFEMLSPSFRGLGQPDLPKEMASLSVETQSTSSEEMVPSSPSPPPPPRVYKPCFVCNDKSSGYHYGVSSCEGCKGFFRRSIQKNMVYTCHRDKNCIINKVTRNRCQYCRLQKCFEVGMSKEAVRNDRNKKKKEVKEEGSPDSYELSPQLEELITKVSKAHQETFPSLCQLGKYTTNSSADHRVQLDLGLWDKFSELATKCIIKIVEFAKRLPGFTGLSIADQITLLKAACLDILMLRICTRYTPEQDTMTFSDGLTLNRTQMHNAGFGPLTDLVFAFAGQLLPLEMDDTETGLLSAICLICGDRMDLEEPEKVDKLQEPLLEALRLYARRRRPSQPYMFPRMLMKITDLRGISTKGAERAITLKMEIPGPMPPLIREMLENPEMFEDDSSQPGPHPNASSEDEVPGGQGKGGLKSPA
Briefly: Displacement of [3H]ATRA from RAR gamma receptor expressed in CV-1 cells. Format: cell-based, Cercopithecidae.

Data set [6] concerns the target T6, Retinoic acid receptor alpha (Homo sapiens) (UniProt P10276).
T6 sequence (whole entry): T3 sequence (P10276 whole entry)
Briefly: Agonist synergy against RAR alpha was tested along with 3 nM TTNPB. Format: functional. The following applies: Cercopithecidae.

Data set [7] concerns the target T7, Retinoic acid receptor RXR-gamma (Homo sapiens, UniProt P48443).
T7 sequence (P48443 whole entry): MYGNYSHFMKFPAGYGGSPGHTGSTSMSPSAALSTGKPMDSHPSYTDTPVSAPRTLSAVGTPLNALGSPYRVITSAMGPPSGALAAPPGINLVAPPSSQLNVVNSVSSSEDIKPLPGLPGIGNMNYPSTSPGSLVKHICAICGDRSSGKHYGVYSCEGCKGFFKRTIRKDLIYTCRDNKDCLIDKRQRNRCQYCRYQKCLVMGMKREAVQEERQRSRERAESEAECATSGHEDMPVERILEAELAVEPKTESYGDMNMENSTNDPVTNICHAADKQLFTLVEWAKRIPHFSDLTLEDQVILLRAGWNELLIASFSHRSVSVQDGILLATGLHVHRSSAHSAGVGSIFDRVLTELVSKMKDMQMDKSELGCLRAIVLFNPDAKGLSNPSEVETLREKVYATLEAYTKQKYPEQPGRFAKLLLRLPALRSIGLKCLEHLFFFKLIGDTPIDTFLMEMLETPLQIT
Briefly: Binding affinity against RXR gamma receptor using [3H]9-cis-RA as radioligand in CV-1 cells. Format: cell-based, Cercopithecidae.

Data set [8] addresses T4, Retinoic acid receptor RXR-alpha. Briefly: In vitro antagonist activity against RXR alpha in CV-1 cells. In kind it is functional, cell-based, Cercopithecidae.
The target in data set [9] is T2, Peroxisome proliferator-activated receptor gamma. The source holds these as a separate data set.
Description: In vitro agonist efficacy against PPAR gamma along with 100 nM BRL-49653
Data set [10] concerns the target T8, Retinoic acid receptor beta (Homo sapiens, UniProt P10826).
T8 sequence (P10826 whole entry): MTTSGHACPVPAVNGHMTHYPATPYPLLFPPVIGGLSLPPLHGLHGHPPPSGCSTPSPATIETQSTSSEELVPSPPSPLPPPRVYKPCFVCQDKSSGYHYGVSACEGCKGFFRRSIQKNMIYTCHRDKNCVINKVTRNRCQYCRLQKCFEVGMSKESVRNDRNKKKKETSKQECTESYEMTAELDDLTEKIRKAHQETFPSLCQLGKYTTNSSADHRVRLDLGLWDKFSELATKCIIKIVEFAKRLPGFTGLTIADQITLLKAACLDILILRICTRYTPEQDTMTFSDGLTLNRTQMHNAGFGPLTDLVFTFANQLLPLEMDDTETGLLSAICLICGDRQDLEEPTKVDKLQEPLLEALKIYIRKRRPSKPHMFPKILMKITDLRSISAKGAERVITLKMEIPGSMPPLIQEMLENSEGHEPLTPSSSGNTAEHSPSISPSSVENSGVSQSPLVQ
Briefly: Binding affinity against RAR beta receptor using [3H]ATRA as radioligand in CV-1 cells. Format: cell-based, Cercopithecidae.

Data set [11] is described as follows: Tmax value in IRC mice. In kind it is ADME, organism-based. The following applies: mouse, in vivo.
Data set [12] can be described thus: Area under curve at 0-8 hr in IRC mice after peroral administration. Particulars: mouse, in vivo, po. The arrangement: time < 8 hr, route oral. In kind it is ADME, organism-based.
Data set [13] deals with T5, Retinoic acid receptor gamma. Briefly: Binding affinity against RAR gamma receptor using [3H]ATRA as radioligand in CV-1 cells. Format: cell-based, Cercopithecidae.
Data set [14] in a line: Cmax value in IRC mice. The following applies: mouse, in vivo. Format: ADME, organism-based.
For data set [15], the target named is T5, Retinoic acid receptor gamma. Briefly: Displacement of [3H]ATRA from RAR gamma receptor in CV-1 cells; […]. Format: cell-based, Cercopithecidae.

`CCCOc1c(\C(C)=C/C=C/C(C)=C/C(=O)O)cc(C(C)C)cc1C(F)(F)C(F)(F)F`: the pKi in data set [1] is 8.00; in [3], under 5.00; in data set [4] it was 7.07; in [5], under 5.00; in data set [7], 7.63; in data set [10], under 5.00. For the same compound, the results for the pEC50 in [2] and in data set [9] were 7.82 and 7.54, respectively. In addition, the Synergy in data set [6] was determined as 9.4 nM. In [8], the pIC50 is 7.97.
For the compound `CC(/C=C/C(F)=C(/C)c1cc(C(C)(C)C)cc(C(C)(C)C)c1OCC(F)F)=C\C(=O)O`, in [11], the Tmax was 3 h. The pKi is 7.94 in [1]; 5.08 in data set [3]; 7.88 in data set [7]; 5.25 in data set [10]; under 5.00 in data set [13]. Moreover, the pEC50 in data set [2] was 8.19; in [9] it was 7.20. Also, in data set [6], the Synergy turned out to be 1.8 nM. The AUC(0-t) at 8 h in [12] amounted to 17700 ng·h/mL. In data set [8], this compound gave a pIC50 of 8.17. Also, the Cmax in data set [14] was 3690 ng/mL and 8.41 µM.
On to `C/C(=C/C=C/C(C)=C/C(=O)O)c1cc(C(C)(C)C)cc(C(C)(C)C)c1OCC(F)F`, for which, in [11], the Tmax was 1 h. Moreover, the pKi in [1] is 8.40; in data set [3], 7.27; in [7], 7.08; in data set [10], 5.02; in [13], under 5.02. Moreover, in data set [12], the AUC(0-t) at 8 h turned out to be 3800 ng·h/mL. In addition, the Cmax in data set [14] was 760 ng/mL and 1.81 µM.
Take `C/C(=C/C=C/C(C)=C/C(=O)O)c1cc(-c2cccs2)cc(C(C)C)c1OCC(F)F`: the pKi in [1] is 8.41; in data set [3], 5.34; in [4], 9.10; in [7] it was 8.25; in data set [10] it was 5.68; in data set [13], under 5.00. Moreover, the pEC50 is 8.33 in data set [2] and 7.82 in [9]. For the same compound, in data set [6], the Synergy is 1.4 nM. The compound further gave a pIC50 in data set [8] of 8.72.
As for `C/C(=C/C=C/C(C)=C/C(=O)O)c1cc(-c2cc(F)cc(F)c2)cc(C(C)C)c1OCC(F)F`, the pKi in data set [1] is 8.62; in data set [3], under 5.00; in [4], 8.59; in [7] it was 8.55; in [10], 5.71; in [13], under 5.00. Moreover, the values for the pEC50 in data set [2] and in data set [9] were 8.57 and 7.40, respectively. The Synergy in [6] was found to be 0.8 nM. The compound also showed a pIC50 in data set [8] of 8.34.
For `C/C(=C/C=C/C(C)=C/C(=O)O)c1cc(-c2ccco2)cc(C(C)C)c1OCC(F)F`, the pEC50 in data set [2] is 8.13; in data set [9] it was 7.43. For the same compound, the pKi is under 5.00 in data set [15] and 8.52 in data set [4]. Moreover, the Synergy in data set [6] came to 1.2 nM. In [8], the pIC50 was 8.44.
